What was measured:
rat mast cells = experiment: Histamine secretion (compound 48/80-stimulated); format: cell-based; conditions: Rattus norvegicus, Mast cell, 2 min, compound 48/80 0.1 μg/ml, 37° C., read-out: IC50
Text: Using an in vitro rat model of mast cell degranulation (proposed by the CRO CEREP, catalog number 2006: 771-c), we aimed to investigate whether the synthetic molecules OM-174-DP (compound 1b) OM-174-MP-PD (19), OM-174-MP-EP (33), OM-174-MP-CM (35c) and OM-174-MP-PR (17) would inhibit histamine secretion by compound 48/80-stimulated mastocytes. The protocol used is briefly summarized below:
The results are expressed as a percent of control specific activity ((measured specific activity/control specific activity)×100) obtained in the presence of the test compounds. The IC50 values (concentration causing a half-maximal inhibition of control specific activity) were determined by non-linear regression analysis of the inhibition curves generated with mean replicate values using Hill equation curve fitting (Y=D+[(A−D)/(1+(C/C50)nH)], where Y=specific activity, D=minimum specific activity, A=maximum specific activity, C=compound concentration, C50=IC50, and nH=slope factor). This analysis was performed using a software developed at Cerep (Hill software) and validated by comparison with data generated by the commercial software SigmaPlot® 4.0 for Windows® (© 1997 by SPSS Inc.).
In each experiment, the reference compound was tested concurrently with the test compounds in order to assess the assay suitability. It was tested at several concentrations (for IC50 value determination), and the data were compared with historical values determined at CEREP. The assay was rendered valid if the suitability criteria were met, in accordance with the corresponding Standard Operating Procedure.

murine macrophages = experiment: Nitric oxide production by murine macrophages (Griess reaction); format: cell-based, C57/BL6 mice; conditions: 22 h
Text: Experimental assay of nitric oxide production by murine macrophages: Six-week old male C57/BL6 mice (six weeks old male, SPF quality, Charles Rivier, FR) were killed by CO2 inhalation. The hip, femur, and tibia from the posterior appendage were removed. The bone marrow was extracted from the lumen by injecting Dulbecco's Modified Eagle Medium (DH) through the bone after cutting both end portions. After washing, the stem cells were resuspended (40'000 cells/mL) in DH medium supplemented with 20% horse serum and 30% L929 cell supernatant. The cell suspension is incubated for 8 days in an incubator at 37° C. under 8% CO2 and moisture-saturated atmosphere. Macrophages are then detached with ice-cold PBS, washed and resuspended in DH medium supplemented with 5% fetal calf serum (FCS), amino acids and antibiotics (DHE medium). The cell density is adjusted to 700′000 cells/mL. Aqueous solutions of the products are serially diluted in DHE medium directly in microtiter plates. The products are tested in triplicates and each microtiter plate comprises a negative control composed of medium. The final volume in each well is […]. 100 μL of the cell suspension are added to the diluted products and the cells are incubated for 22 h in an incubator at 37° C., under 8% CO2 and a moisture-saturated atmosphere. At the end of the incubation period, 100 μL of supernatant are transferred to another microtiter plate and the nitrite concentration produced in each supernatant is determined by running a Griess reaction. 100 μL of Griess reagent (5 mg/mL of sulfanilamide+0.5 mg/mL of N-(1-naphtyl)ethylene-diamine hydrochloride) in 2.5% aqueous phosphoric acid, are added to each well. The microtiter plates are read with a spectrophotometer (SpectraMax Plus, Molecular Devices) at 562 nm against a reference at 690 nm. The nitrite concentration is proportional to nitric oxide content being formed. The nitrite content is determined based on a standard curve. The results are given as mean value±standard deviation and plotted as a dose response curve.

TLR2 = molecular target: T1, TLR2 (Homo sapiens, UniProt O60603); experiment: HEK-TLR2 IL-8 secretion; format: cell-based; conditions: for IL-8 secretion, mean: 24 h; for activation of IL-8 secretion via TLR2 (in words): HEK-TLR2
T1 construct: host or cells: HEK293
T1 sequence (O60603 21-784): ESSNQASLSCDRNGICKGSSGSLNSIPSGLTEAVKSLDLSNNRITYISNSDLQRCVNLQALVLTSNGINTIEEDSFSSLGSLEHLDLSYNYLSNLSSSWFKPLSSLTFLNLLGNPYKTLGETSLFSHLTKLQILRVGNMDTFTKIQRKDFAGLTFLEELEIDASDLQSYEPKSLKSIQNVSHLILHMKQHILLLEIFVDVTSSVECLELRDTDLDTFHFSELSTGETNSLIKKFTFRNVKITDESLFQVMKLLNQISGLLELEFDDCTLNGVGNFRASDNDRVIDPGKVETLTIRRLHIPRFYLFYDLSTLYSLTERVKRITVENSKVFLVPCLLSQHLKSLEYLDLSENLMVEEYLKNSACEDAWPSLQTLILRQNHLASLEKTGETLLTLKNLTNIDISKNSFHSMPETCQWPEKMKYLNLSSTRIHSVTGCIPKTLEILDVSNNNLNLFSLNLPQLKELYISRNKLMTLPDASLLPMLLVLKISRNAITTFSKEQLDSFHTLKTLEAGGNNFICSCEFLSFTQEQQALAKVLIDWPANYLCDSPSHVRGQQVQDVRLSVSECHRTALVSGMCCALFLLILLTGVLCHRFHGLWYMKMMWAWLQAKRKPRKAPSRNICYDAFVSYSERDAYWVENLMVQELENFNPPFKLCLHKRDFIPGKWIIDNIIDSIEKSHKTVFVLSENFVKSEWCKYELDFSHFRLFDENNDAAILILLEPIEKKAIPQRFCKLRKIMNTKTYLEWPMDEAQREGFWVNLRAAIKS
Text: (§1) The HEK293 cell line was chosen for its null or low basal expression of the TLR genes. These cells enable efficient monitoring of TLR activity using ELISA analysis such as IL-8 titration or reporter-based systems that monitor TLR-induced NF-κB activation. HEK-TLR2 cells (Invivogen, Toulouse, France) are engineered HEK293 cells stably transfected with multiple genes from the TLR2 pathway that include TLR2 and genes participating in the recognition or involved in the signaling cascade. These cells secrete IL-8 after TLR2 stimulation. The experiments were performed according to manufacturers' instructions. Briefly, 2×10^4 cells/well (200 ul RPMI) are incubated at 37° C. during 3 days (5% CO2). The medium is removed, and 90 ul RPMi+5% FCS is added to the wells Then the agonists and controls are added (10 ul/well). The cells return to the incubator for 24 hours. The supernatants are collected and the IL-8 ELISA is performed according to manufacturer's instructions

TLR2 and CD14 = molecular target: T2, TLR2 and CD14 (Homo sapiens, UniProt O60603); experiment: HEK-TLR2-CD14 IL-8 secretion; format: cell-based; conditions: for IL-8 secretion, mean: 24 h; for activation of IL-8 secretion via TLR2 (in words): HEK-TLR2-CD14
T2 construct: expressed in transfected cells; host or cells: HEK (HEK-TLR2-CD14 cell line)
T2 sequence (O60603 21-784): as above
Text: as §1, with “manufacturer's instructions These preliminary results were confirmed in another cell line expressing concomitantly TLR2 and CD14. The procedure used is similar to the one described just above.” for “manufacturer's instructions”

| SMILES | IC50 (rat mast cells) [nM] | nitric oxide production (in words), FIG. 25 (murine macrophages) | IL-8 secretion, mean (TLR2; 14 ng/ml) [pg/mL] | IL-8 secretion, mean (TLR2; 41 ng/ml) [pg/mL] | IL-8 secretion, mean (TLR2; 124 ng/ml) [pg/mL] | IL-8 secretion, mean (TLR2; 370 ng/ml) [pg/mL] | IL-8 secretion, mean (TLR2; 1111 ng/ml) [pg/mL] | IL-8 secretion, mean (TLR2; 3333 ng/ml) [pg/mL] | IL-8 secretion, mean (TLR2; 10000 ng/ml) [pg/mL] | IL-8 secretion, mean (TLR2 and CD14; 14 ng/ml) [pg/mL] | IL-8 secretion, mean (TLR2 and CD14; 41 ng/ml) [pg/mL] | IL-8 secretion, mean (TLR2 and CD14; 124 ng/ml) [pg/mL] | IL-8 secretion, mean (TLR2 and CD14; 370 ng/ml) [pg/mL] | IL-8 secretion, mean (TLR2 and CD14; 1111 ng/ml) [pg/mL] | IL-8 secretion, mean (TLR2 and CD14; 3333 ng/ml) [pg/mL] | IL-8 secretion, mean (TLR2 and CD14; 10000 ng/ml) [pg/mL] | activation of IL-8 secretion via TLR2 (in words) (TLR2) | activation of IL-8 secretion via TLR2 (in words) (TLR2 and CD14) | dose from which active (nitric oxide production) (murine macrophages) [µg/mL] |
| --- | --- | --- | --- | --- | --- | --- | --- | --- | --- | --- | --- | --- | --- | --- | --- | --- | --- | --- | --- |
| CCCCCCCCCCCC(=O)O[C@H](CCCCCCCCCCC)CC(=O)NC1C(OCC2OC(OP(=O)(O)O)C(NC(=O)C[C@H](O)CCCCCCCCCCC)C(O)C2O)OC(CO)C(OP(=O)(O)O)C1O (stereo partly drawn) [compound 1b, 2-Deoxy-6-O-[2-deoxy-4-O-(dihydroxyphosphoryl)-2-[(R)-3-dodecanoyloxytetradecanoylamino]-β-D-glucopyranosyl]-2-[(R)-3-hydroxytetradecanoylamino]-α-D-glucopyranosyl dihydrogenophosphate] | 86 |  |  |  |  |  |  |  |  |  |  |  |  |  |  |  |  |  |  |
| CCCCCCCCCCCC(=O)O[C@H](CCCCCCCCCCC)CC(=O)N[C@H]1[C@H](OC[C@H]2O[C@H](O)[C@H](NC(=O)C[C@H](O)CCCCCCCCCCC)[C@@H](O)[C@@H]2O)O[C@H](CO)[C@@H](OP(=O)(O)O)[C@@H]1O [compound 16, 2-Deoxy-6-O-[2-deoxy-4-O-(dihydroxyphosphoryl)-2-[(R)-3-dodecanoyloxytetradecanoylamino]-β-D-glucopyranosy]-2-[(R)-3-hydroxytetradecanoylamino]-α-D-glucopyranose] |  | able to induce high levels of nitric oxide | 0.07 | 0.09 | 0.15 | 0.12 | 0.15 | 0.19 | 0.27 | 0.03 | 0.00 | 0.03 | 0.01 | 0.06 | 0.13 | 0.22 |  |  |  |
| CCCCCCCCCCCC(=O)O[C@H](CCCCCCCCCCC)CC(=O)N[C@H]1[C@H](OC[C@H]2O[C@H](OCCC)[C@H](NC(=O)C[C@H](O)CCCCCCCCCCC)[C@@H](O)[C@@H]2O)O[C@H](CO)[C@@H](OP(=O)(O)O)[C@@H]1O [compound 17, Propyl-2-Deoxy-6-O-[2-deoxy-4-O-(dihydroxyphosphoryl)-2-[(R)-3-dodecanoyloxytetradecanoylamino]-β-D-glucopyranosyl]-2-[(R)-3-hydroxytetradecanoylamino]-α-D-glucopyranoside] | 1600 | able to induce high levels of nitric oxide | 0.19 | 0.20 | 0.24 | 0.25 | 0.39 | 0.88 | 2.02 | 0.13 | 0.14 | 0.20 | 0.22 | 0.40 | 1.06 | 3.59 | able to activate IL-8 secretion via TLR2 | able to activate IL-8 secretion via TLR2 |  |
| CCCCCCCCCCCC(=O)O[C@H](CCCCCCCCCCC)CC(=O)N[C@H]1[C@H](OC[C@H]2O[C@H](OCC(O)CO)[C@H](NC(=O)C[C@H](O)CCCCCCCCCCC)[C@@H](O)[C@@H]2O)O[C@H](CO)[C@@H](OP(=O)(O)O)[C@@H]1O (stereo partly drawn) [compound 19, 2,3-Dihydroxypropyl-2-Deoxy-6-O-[2-deoxy-4-O-(dihydroxyphosphoryl)-2-[(R)-3-dodecanoyloxytetradecanoylamino]-β-D-glucopyranosyl]-2-[(R)-3-hydroxytetradecanoylamino]-α-D-glucopyranoside] | 160 | able to induce high levels of nitric oxide | 0.06 | 0.15 | 0.16 | 0.20 | 0.27 | 0.37 | 0.62 | 0.05 | 0.03 | 0.11 | 0.10 | 0.17 | 0.26 | 0.65 |  |  | ≥ 0.01 |
| CCCCCCCCCCCC(=O)O[C@H](CCCCCCCCCCC)CC(=O)N[C@H]1[C@H](OC[C@H]2O[C@H](OCCOP(=O)(O)O)[C@H](NC(=O)C[C@H](O)CCCCCCCCCCC)[C@@H](O)[C@@H]2O)O[C@H](CO)[C@@H](OP(=O)(O)O)[C@@H]1O [compound 33, 2-(Phosphonooxy)ethyl-2-Deoxy-6-O-[2-deoxy-4-O-(dihydroxyphosphoryl)-2-[(R)-3-dodecanoyloxytetradecanoylamino]-β-D-glucopyranosyl]-2-[(R)-3-hydroxytetradecanoylamino]-α-D-glucopyranoside] | 210 |  | 0.12 | 0.18 | 0.23 | 0.31 | 0.68 | 1.66 | 3.64 | 0.10 | 0.03 | 0.17 | 0.19 | 0.52 | 1.49 | 4.24 | able to activate IL-8 secretion via TLR2 | able to activate IL-8 secretion via TLR2 |  |

Reference: patent US20100168054A1, “Functionalized Beta 1,6 Glucosamine Disaccharides and Process for Their Preparation” (OM PHARMA, priority 2006, published 2010)
